ChEMBL document CHEMBL1141796, “Hirsutide, a cyclic tetrapeptide from a spider-derived entomopathogenic fungus, Hirsutella sp” (J Nat Prod, 2005)
Calls of active or inactive are those of the source. The rule behind the calls is not given here.

Key:
P388 = experiment: Cytotoxicity against mouse P388 cells; assay type: functional, cell-based
Amorphotheca resinae = experiment: Antifungal activity against Cladosporium resinae by agar diffusion assay; assay type: functional, organism-based
[1] = test system: Trichophyton mentagrophytes; experiment: Antifungal activity against Trichophyton mentagrophytes by agar diffusion assay; assay type: functional, organism-based
Bacillus subtilis = experiment: Antibacterial activity against Bacillus subtilis by agar diffusion assay; assay type: functional, organism-based
Escherichia coli = experiment: Antibacterial activity against Escherichia coli by agar diffusion assay; assay type: functional, organism-based
Candida albicans = experiment: Antifungal activity against Candida albicans by agar diffusion assay; assay type: functional, organism-based

Structure (SMILES): CC(=O)O[C@@H]1/C=C/[C@@](C)(O)C(=O)[C@@H](C)C/C=C/[C@H]2[C@@H]3O[C@]3(C)[C@@H](C)[C@H]3[C@H](Cc4ccccc4)NC(=O)[C@@]312 [CYTOCHALASIN Q]
- IC50 (P388): 2.4 µM
- Activity (Amorphotheca resinae): inactive
- Activity [1]: inactive
- Activity (Bacillus subtilis): inactive
- Activity (Escherichia coli): inactive
- Activity (Candida albicans): inactive
